IC50 and ED50 data for four molecules are collected here from patent EP0698025B1, “AMPA ANTAGONISTS AND A METHOD OF TREATMENT THEREWITH” (NEUROSEARCH A/S, priority 1993, dated 1994).

Broadly, the IC50 is the concentration that inhibits the measured activity by half. A low value points to greater potency. The ED50 is the dose at which the effect has come halfway, by size or by number of responders.

Assay [1] has as its target AMPA receptor. Kind of assay: AMPA receptor binding affinity (as described by T. Honoré et al., Neuroscience Letters 54, 27-32 (1985)). As to conditions: binding affinity for the AMPA receptor.
Assay [2] concerns AMPA-induced clonic seizures. Briefly: In vivo AMPA seizure test (AMPA-induced clonic seizures). Details: species or system female NMRI mice. To be noted: Mus musculus; dose inhibiting 50% of the mice from having clonic seizures; test compound i.v. 5 min (or p.o. 30 min) before 0.3 µg icv AMPA; route not given. Here is the method: Also compounds of the present invention when adminestered i.v. or i.p. in the in vivo AMPA seizure test as described below inhibit the clonic seizures induced by AMPA.
AMPA given icv (intracerebroventricular) (15 µg/kg) NMRI to mice induces clonic seizures which should be inhibited by non-NMDA receptor antagonists. Method: Test compound was given i.v. 5 min (or p.o. 30 min) before a 0.3 µg icv administration of AMPA to 10 female NMRI mice (weighing 24-26 g) per dose. The number of mice experiencing clonic seizures within the next 5 min was noted. An ED50 value was calculated as the dose inhibiting 50% of the mice from having clonic seizures.

As for `CN1CCc2c(-c3ccc([N+](=O)[O-])cc3)cc3c(c2C1)NC(=O)C3=NO` [Compound 10, 8-methyl-5-(4-nitrophenyl)-6,7,8,9-tetrahydro-1H-pyrrolo[3,2-h]isoquinoline-2,3-dione 3-oxime], the concentration for half-maximal inhibition (IC50) in assay [1] was 150 nM. In assay [2], it took a dose of 5 mg/kg to reach the 50% effect level (ED50).

Molecule `CN1Cc2c(-c3ccc([N+](=O)[O-])cc3)cc3[nH]c(=O)c(=O)[nH]c3c2C1` [Compound 3] yielded an IC50 in assay [1] of 600 nM.

Molecule `CN1CCc2c(-c3ccccc3)cc3c(c2C1)NC(=O)C3=NO` [Compound 9, 8-methyl-5-phenyl-6,7,8,9-tetrahydro-1H-pyrrolo[3,2-h]isoquinoline-2,3-dione 3-oxime] displayed a half-inhibitory concentration (IC50) in assay [1] of 200 nM.

In turn, `CCN1Cc2c(-c3ccccc3)cc3c(c2C1)NC(=O)C3=NO` [Compound 13] came in with a half-inhibitory concentration (IC50) in assay [1] of 100 nM.
